The source made the active and inactive calls.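 How the source made its calls: active means compounds giving half or more protection of infected cells from virus-caused growth loss, again on retest; inactive means the rest.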
Tested on: CEM cells HIV-1 protection, formazan growth assay
Assay: NCI AIDS Antiviral Assay
Conditions: for IC50: measured here: growth of uninfected CEM cells
How it was run: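 Protection of CEM cells against HIV-1 was scored from cell growth (soluble formazan) across five concentrations, with parallel uninfected cells. Lack of protection may reflect toxicity.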

Row | SMILES | EC50 [µM] | IC50 [µM] | outcome
1 | COC1OC2COC(c3ccccc3)OC2C(S)C1S (stereo not given) | > 200 | 102 | –
2 | CC(C)(C)C(=O)/C=C/c1ccccc1Cl | > 23.4 | > 23.4 | –
3 | CC1(C)C=C(/C=N/Nc2ccc([N+](=O)[O-])cc2)C(C#N)=C(O)C1(C#N)C#N | > 200 | 53.7 | –
4 | O=C(c1ccccc1)N1CCN(C(=S)NC2CCCCC2)C1=S | > 200 | 12 | –
5 | O=c1c(SCc2cccc(F)c2)c(SCc2cccc(F)c2)cnn1-c1ccccc1 | > 30.2 | 21.9 | –
6 | O=c1c2ccccc2oc2cc([N+](=O)[O-])cc([N+](=O)[O-])c12 | > 5.01 | 4.17 | –
7 | CCc1cccc(CC)c1NC1=CC(=O)C(=O)c2ccccc21 | > 23.4 | > 23.4 | –
8 | COC(=O)C1=C(CS(=O)c2ccc([N+](=O)[O-])cc2[N+](=O)[O-])C2C=CC1C2 (stereo not given) | – | – | inactive
9 | CCCCCCCCCCCCCC(=O)OCC1OC(n2cc(C)c(=O)[nH]c2=O)CC1N=[N+]=[N-] (stereo not given) | 0.00372 | 102 | –
10 | N#Cc1ccc(/C=C2\CCc3ccccc3C2=O)cc1 | > 20 | > 20 | –
11 | CC(=O)Nc1ccc(N2C(=O)/C(=C\c3cccc(Oc4ccccc4)c3)SC2c2ccccc2)cc1 (stereo not given) | > 200 | 36.3 | –
12 | NC(=O)[N+](=CC(=S)Nc1ccccc1Cl)C(N)=O | > 200 | > 200 | –
13 | NS(=O)(=O)c1ccc(N2C(=O)C(=O)N(c3ccccc3)C2=S)cc1 | > 200 | 19.5 | –
14 | Cc1ccccc1C1(O)c2ccccc2Oc2ccccc21 | > 200 | 13.8 | –
15 | Brc1ccc(C2SCc3nc4ccccc4n32)cc1 (stereo not given) | – | – | inactive
16 | COC(=O)c1c2c(cc3c1CC1(Cc4cc5c(c(C)c4C1)CCC5)C3)CCC2 (stereo not given) | > 200 | > 200 | –
17 | CC(Oc1ccc(OCC2CCCCC2)cc1)C(=O)N(CCO)CCO (stereo not given) | > 692 | 44.7 | –
18 | Cc1cc(Cc2cc(C)c(NC(=O)C(=O)C3CCC4=C(SC5C=CC=CC5N4)C3=O)c(C(C)C)c2)cc(C(C)C)c1NC(=O)C(=O)C1CCC2=C(SC3C=CC=CC3N2)C1=O (stereo not given) | > 41.7 | 12 | –
19 | Cn1nc(-c2ccccc2)c2c(/C=C/c3ccccc3)onc2c1=O | – | – | inactive
20 | CC(=O)Nc1cccc(C(CC(=O)O)CC(=O)O)c1 | > 200 | > 200 | –
21 | Cc1nc2c(c(=O)[nH]1)OCN(C)C2 | > 200 | 148 | –
22 | O=S1(=O)CCN(c2ccccc2CC(c2c[nH]c3ccccc23)c2c[nH]c3ccccc23)CC1 | > 5.75 | > 5.75 | –

Row | SMILES | EC50 [µM] | IC50 [µM] | outcome
23 | Clc1ccc(CN2COc3c(ccc4cccnc34)C2)cc1Cl | > 200 | 1.29 | –
24 | CCCN1CN(C(C(=O)N[C@@H]2C(=O)N3C(C(=O)O)=C(C)CSC23)c2ccccc2)CSC1=S (stereo not given in full) | > 355 | 204 | –
25 | Oc1ccc(Oc2cc3c(cc2Oc2ccc(O)cc2)-c2nc-3nc3[nH]c(nc4nc(nc5[nH]c(n2)c2cc(Oc6ccc(O)cc6)c(Oc6ccc(O)cc6)cc52)-c2cc(Oc5ccc(O)cc5)c(Oc5ccc(O)cc5)cc2-4)c2cc(Oc4ccc(O)cc4)c(Oc4ccc(O)cc4)cc32)cc1 | > 50.1 | 22.9 | –
26 | COC(=O)[C@@H](N1C(=O)c2ccccc2C1=O)C1(C)CC(Cl)=NO1 (stereo not given in full) | > 200 | > 200 | –
27 | Cc1ccc(/C([O-])=C(\C(=S)Nc2cccc(C(F)(F)F)c2)[n+]2ccccc2)cc1 | > 200 | 89.1 | –
28 | c1ccc(CN(Cc2ccccn2)Cc2ccccn2)nc1 | > 200 | 3.16 | –
29 | CCSc1nc(-c2ccc(OC)cc2)c(C#N)c(=O)n1C1OCC(OC(C)=O)C(OC(C)=O)C1OC(C)=O (stereo not given) | > 200 | > 200 | –
30 | CC12CCC(=O)N1c1ccc(Cl)cc1N2 (stereo not given) | > 115 | > 115 | –
31 | COc1ccc2[nH]c3c(C)c4cc[n+](C)cc4c(C)c3c2c1 | > 20 | 0.417 | –
32 | COc1ccc2c(-c3ccc(O)cc3)c(Oc3ccccc3)c(=O)oc2c1 | – | – | inactive
33 | O=C1CCC2CCC(=O)N12 | > 1780 | > 1780 | –
34 | CCCCC1CC(c2ccc(Cl)cc2)=NO1 (stereo not given) | > 21.9 | > 21.9 | –
35 | NC(=O)N/N=C1/CCCC/C1=C\c1ccccc1 | – | – | inactive
36 | CCN(CC)CCN(C)CCc1ccc(Br)cc1 | > 126 | 112 | –
37 | O=c1[nH]c(=O)n(C2CC(F)C(CO)O2)cc1CO (stereo not given) | > 479 | 186 | –
38 | CC1CCN(C(C)C)P(=S)(Cc2ccccc2)O1 (stereo not given) | > 200 | 123 | –
39 | CCOC(=O)C1=c2[nH]c3cccc4cccc(c43)n2C(=O)CC1 | > 200 | 12.3 | –
40 | CCOC(=O)c1ccn2c(c1)c(C#N)c1nc3ccccc3nc12 | > 16.6 | > 16.6 | –
41 | O=C(CSc1ncn[nH]1)C[P+](c1ccccc1)(c1ccccc1)c1ccccc1 | – | – | inactive
42 | O=c1[nH]c(=O)n(C2OC(CO)C(O)C2O)c2nccnc12 (stereo not given) | > 200 | > 200 | –
43 | S=c1nn[nH]n1-c1ccccc1.[Cd] | > 42.7 | 32.4 | –
44 | N#CC(C(=O)/C(=N/Nc1nc(=S)[nH]n1N)C(C#N)c1ccccc1)c1ccccc1 (stereo not given) | > 17.4 | > 17.4 | –

Row | SMILES | EC50 [µM] | IC50 [µM] | outcome
45 | Clc1ccc(C2=CC(c3ccccc3)N3C(=N[C@H]4CCCC[C@@H]43)N2)cc1 (stereo not given in full) | > 100 | 4.68 | –
46 | C=C(C)[C@@H]1CC[C@]2(COC(=O)CC(C)(C)CC(=O)O)CC[C@]3(C)[C@H](CC[C@@H]4[C@@]5(C)CC[C@H](OC(=O)CC(C)(C)CC(=O)O)C(C)(C)[C@@H]5CC[C@]43C)[C@@H]12 | > 200 | 7.08 | –
47 | N#C/C1=C(\N)CCSSSC1 | > 457 | 22.9 | –
48 | Cn1c(=O)cc(C=Nc2ccc(-c3ccccc3)cc2)c2ccccc21 | > 100 | 2 | –
49 | C/C(=N\NC(N)=O)c1ccc(Cl)cc1 | > 123 | > 123 | –
50 | CCOC(=O)C(O)(NC(=O)Nc1ccc(F)cc1)C(F)(F)F (stereo not given) | > 200 | > 200 | –
51 | CC12CC/C(=N/NC(N)=O)C3C1CCCC32 | – | – | inactive
52 | Cc1ccc(S(=O)(=O)NCCCN(CCCNS(=O)(=O)c2ccc(C)cc2)S(=O)(=O)c2ccc(C)cc2)cc1 | > 2.45 | > 2.45 | –
53 | C/C(N=NS(=O)(=O)c1ccc([N+](=O)[O-])cc1)=C1\C=CC=CN1O | – | – | inactive
54 | Cn1cnc([N+](=O)[O-])c1SSc1c([N+](=O)[O-])ncn1C | > 200 | > 200 | –
55 | O=P(O)(O)CN1CCN(CP(=O)(O)O)CCN(CP(=O)(O)O)CCN(CP(=O)(O)O)CC1 | > 100 | 20.4 | –
56 | COc1ccc(N2C(=O)/C(=C\c3cccc(Oc4ccccc4)c3)SC2c2ccccc2)cc1 (stereo not given) | > 200 | 8.51 | –
57 | COC(=O)C1=C(C(=O)OC)C2=S(SC3=C2CCCC3)S1 (stereo not given) | – | – | inactive
58 | O=c1cn[nH]c2c(Br)cccc12 | > 479 | 275 | –
59 | O=C1c2ccccc2C(=O)C1(Br)c1ccccc1 | > 200 | > 200 | –
60 | Oc1ccc(O)c(-n2cccn2)c1 | > 14.1 | 7.24 | –
61 | CC/C=C/C(O[Si](C)(C)C(C)(C)C)C1CC2OC(=O)CCCC2O1 (stereo not given) | > 708 | > 708 | –
62 | CN1S(=O)(=O)N(C)P12(N=P(CP(=NP13(N(C)S(=O)(=O)N1C)N(C)S(=O)(=O)N3C)(c1ccccc1)c1ccccc1)(c1ccccc1)c1ccccc1)N(C)S(=O)(=O)N2C | > 70.8 | > 70.8 | –
63 | O/N=C1/C(=C/c2ccc(OCc3ccccc3)cc2)CCCC1C(NO)c1ccc(OCc2ccccc2)cc1 (stereo not given) | > 7.08 | > 7.08 | –
64 | COC1(OC)N=C(N)C2(C#N)C(C)=C3NCN(C)N=C3C12C#N (stereo not given) | > 200 | > 200 | –
65 | CC(C)(C)c1ccc(-c2nc3ccccc3c(=O)o2)cc1 | > 200 | 38.9 | –
66 | CCOC(=O)c1cc2cc3c4c(c2oc1=O)CCCN4CCC3 | > 115 | > 115 | –

Row | SMILES | EC50 [µM] | IC50 [µM] | outcome
67 | Nc1ccc(-c2ccc(N)c(S(=O)(=O)O)c2)cc1S(=O)(=O)O | > 724 | > 724 | –
68 | CC(C)(CO)NC(=O)c1cccc(C(=O)NC(C)(C)CO)c1Br | > 200 | > 200 | –
69 | Cc1ccc(C(=O)O/N=C2/CCC/C2=C\c2ccccc2)cc1 | – | – | inactive
70 | S=C1c2ccccc2NC(=NC2CCCC2)C2CSCN12 (stereo not given) | > 200 | 148 | –
71 | CC(=O)[C@@H](C)C(=O)N1C(=O)OC[C@@]12[C@@H]1CC[C@@H](C1)C2(C)C | > 200 | > 200 | –
72 | COc1cc(C2c3cc4c(cc3OC(NCCO)C2C)OCO4)cc(OC)c1O (stereo not given) | > 200 | 3.16 | –
73 | CCOC(=O)C1=C(O)c2c(sc(C)c2-c2ccccc2)N(S(=O)(=O)c2ccc(C)cc2)CC1 | > 100 | 4.79 | –
74 | O=c1[nH]nc(Cc2ccccc2)[nH]1 | > 200 | > 200 | –
75 | COc1ccccc1NC(=S)Nc1ccccn1 | > 200 | > 200 | –
76 | Cc1ccc(N=Nc2c(C)nn(-c3ccccc3)c2C)c(Br)c1 | – | – | inactive
77 | O=C(NN1C(=O)C=CC1=O)c1ccccc1Nc1ccccc1C(=O)NN1C(=O)C=CC1=O | 63.1 | 191 | –
78 | CC(C)CCCC(C)C1CCC2C3CC[C@H]4C[C@H](NC(=O)C=C(c5cc(Cl)c(O)c(C(=O)O)c5)c5cc(Cl)c(O)c(C(=O)O)c5)CC[C@]4(C)C3CC[C@]12C (stereo not given in full) | > 100 | 26.3 | –
79 | CCNCC1c2ccccc2-c2nc3ccccc3nc2-c2ccccc21 | > 60.3 | 8.32 | –
80 | C=CCN1/C(=C(\C#N)c2nc3ccccc3[nH]2)Sc2c1nc[nH]c2=O | > 10.7 | > 10.7 | –
81 | c1ccc2sc(SSSc3nc4ccccc4s3)nc2c1 | 14.1 | 34.7 | –
82 | Cc1ccc(C)c(NC(=O)CCc2nc(=S)[nH][nH]2)c1 | – | – | inactive
83 | C/C(=N\O)c1ccc2c3c(ccc([N+](=O)[O-])c13)CC2 | > 200 | 46.8 | –
84 | CC(=O)c1cc(C(C)=O)c(CC(=O)C(=O)Nc2cccc(C)c2C)nc1CC(=O)C(=O)Nc1cccc(C)c1C | > 200 | > 200 | –
85 | CNc1ncnc2nc(OC)[nH]c12 | > 105 | > 105 | –
86 | COc1cccc(C2N3CCCCC3[C@@H]3c4[nH]c5ccccc5c4CCN23)c1OC (stereo not given in full) | > 33.9 | > 33.9 | –

— PubChem BioAssay AID179 (DTP/NCI, 2004)
